Data taken from patent publication US12173320B2, “Production of red blood cells and platelets from stem cells” (BOSTON MEDICAL CENTER CORPORATION, priority 2012, dated 2024).

What was measured:
[1] = tested on: AhR (CYP1B1 target gene expression) in MEPs; test: Quantitative RT-PCR of AhR target gene CYP1B1 in MEPs; assay type: cell-based, human
Method: 6-formylindolo[3,2-b]carbazole (FICZ), an AHR small molecule agonist, and CH223191, an AHR competitive inhibitor were used for these assays. CH223191 was added to mesoderm cultures at Day 6 at 5 μM (lx) and 2.504 (0.5×). 0.2 μM FICZ was added to cultures at Day 7 and media was added daily. DMSO was used as a vehicle control.
(§1) RNA was extracted using the RNeasy kit (Qiagen) according to the manufacturer's instructions and DNase treated using the DNA-free kit (Ambion AM1906). Reverse transcription into cDNA was performed using the High Capacity cDNA Reverse Transcription Kit (Applied Biosystems 4368814). Quantitative (real time) PCR amplification of cDNA was performed using Taqman probes for AHR (Hs00169233 ml), CYP1B1 (Hs002382916 sl), HBA (Hs00361191 gl), HBB (Hs00758889 sl), HBG (Hs01629437 sl), vWF (Hs00169795 ml), PF4 (Hs00427220 gl), NF-E2 (Hs00232351 ml) and CD62P (Hs00927900 ml) and run on the Applied Biosystems StepOne machine. Relative gene expression was normalized to B-actin (Hs99999903 ml).
To characterize AhR expression and functionality in both undifferentiated iPSCs and directly differentiated MEPs, AhR protein levels were determined via Western blot in these populations. […] To test this hypothesis, the ability of FICZ to induce a prototypic AhR-target gene, CYPIB1, in iPSCs or, as a positive control, MEPs was assessed by quantitative RT-PCR.

AhR = test: Lentiviral AhR reporter (MMTV-DRE dsRed / luciferase) in MEPs; assay type: cell-based, human; conditions: day 30 MEPs, FICZ increased to 0.4 μM
iPSC-derived MEPs = test: Immunophenotyping of MEP lineage specification (CD235, CD71, CD41 FACS); assay type: cell-based, human; conditions: MEPs in feeder-free conditions, continuous FICZ, day 15 to 30 and later
Method: Roughly 10^5 cells were collected, spun, and re-suspended in 0.5% BSA in PBS. Samples were incubated for 30 min at ambient temperature with human antibodies including CD41a-FITC (BD 555466), CD235-PE (BD 555570), CD71-FITC (BD 555536), washed and spun at 3300 rpm for 7 min, and re-suspended in 0.5% BSA in PBS with 1 ug/ml Propidium Iodide. Samples were run on a BD FACScalibur using Cellquest Pro software and analyzed via FloJo 8.7. For ploidy analysis, cells were treated with 1.5% NP-40 (Boston Bioproducts P-872) and 62.5 ug/ml Propidium Iodide in PBS immediately before FACScalibur interrogation. For murine bone marrow, samples were first incubated for 5 min at ambient temperature with murine conjugated antibody CD16/32 (BD 553142) before a 30 min incubation with c-Kit-PE (BD 553355), CD41a-FITC (BD 553848), Ter119-PE (BD 553673). For cell viability assays, 2-3×10 ^5 cells were collected, re-suspended in 8.8 ug/ml Hoecsht 33342 in PBS supplemented with 5% FBS. Samples were then incubated in the dark at 37° C. for 15 min, washed, and re-suspended in 1 ug/ml Propidium Iodide in 5% FBS. Samples were run on an LSR-II machine with FACSDiva software and analyzed via FloJo 8.7.
In our previous studies in which we noted exponential expansion of iPSC-derived MEPs (FIG. 3), the AhR-mediated effect that we noted allowed us to culture cells for extended periods of time (>120 days). […]

[2] = In vivo blood cell counts (Hemavet) in normal mice; parameters: species or system mouse
Method: (§2) C57B16 mice were injected daily intraperitoneally with FICZ suspended in vegetable oil using a weekly dose escalation scheme (Week 1: 1 mg/kg; Week 2: 2 mg/kg; Week 3: 4 mg/kg). Blood cell counts were assayed by Hemavet quantification of peripheral blood bleeds, at all 3 time points (Day 7, 14, and 21). Following the 3 week time point, mice were sacrificed and livers and spleens harvested for quantitative RT-PCR analyses.
To determine if FICZ treatment or whole animals would affect RBC or platelet production, C57B16 mice were injected daily intraperitoneally with FICZ suspended in vegetable oil using a weekly dose escalation scheme (Week 1: 1 mg/kg; Week 2: 2 mg/kg; Week 3: 4 mg/kg). […] Following the 3 week time point, mice were sacrificed and livers and spleens harvested.

[3] = tested on: AhR (CYP1B1 target gene expression); test: In vivo CYP1B1 target gene expression in liver and spleen (quantitative RT-PCR); parameters: species or system mouse; conditions: after 3 weeks of FICZ
Method: as §1, §2
To determine if FICZ treatment or whole animals would affect RBC or platelet production, C57B16 mice were injected daily intraperitoneally with FICZ suspended in vegetable oil using a weekly dose escalation scheme (Week 1: 1 mg/kg; Week 2: 2 mg/kg; Week 3: 4 mg/kg). […]

[4] = C57B16 mice, daily i.p. dose escalation

In the case of O=Cc1c2c(cc3c1=Nc1ccccc1-3)=Nc1ccccc1-2 [FICZ, 6-formylindolo[3,2-b]carbazole], the CYP1B1 expression ([1]; Day 15 MEPs, with vs. without FICZ, normalized to β-actin) is reported as “statistically significant increases”, the “responsiveness to AhR agonist (CYP1B1 RT-PCR)” value ([1]; MEP, normalized to GAPDH) is reported as “responsive” and the DsRed reporter expression (AhR) is reported as “significant increase”. The “erythroid specification (CD71 / CD235 expression)” value (iPSC-derived MEPs) was “progressive erythroid specification and maturation”, the “red blood cell (RBC) counts” value [2, 4] was “None of the mice in the study showed significant variations” and the “white blood cell (WBC) counts” value [2, 4] was “None of the mice in the study showed significant variations”. The platelet counts ([2]; C57B16 mice, daily i.p., 1, 2, 4 mg/kg weekly escalation, Day 7, 14 and 21, versus mock or vehicle) was “increased platelet counts”, the platelet response ([2]; one mouse immediately exposed to higher doses (4 mg/kg), no week 1 escalation) was “more immediate and prolific platelet response” and the “CYP1B1 target gene expression in liver” value [3] was “robust upregulation”. The “CYP1B1 target gene expression in spleen” value [3] was “robust upregulation”.
